Data from ChEMBL document CHEMBL1914322, “Novel terpenoids of the fungus Aspergillus insuetus isolated from the Mediterranean sponge Psammocinia sp. collected along the coast of Israel” (2011).
Values after ≈ are worked out from the molar mass of the structure shown. Active and inactive are the calls of the source. The rule behind the calls is not given here.

Assays:
[1] = test system: MOLT-4; assay: Cytotoxicity against human MOLT4 cells at […]; type: functional
[2] = test system: Neurospora crassa; assay: Antifungal activity against Neurospora crassa 74-OR23-1A after 12 hrs; type: functional

MIC [2] [µM] | Structure (SMILES) | inhibition [1]
140 (≈ 60 µg/mL) | CC1(C)OC(=O)C=C[C@]2(C)[C@@H]3C[C@@]4(C)C(=O)[C@@]5(C)C[C@@H]6C(=O)OC[C@@]64O[C@@]3(CC[C@@H]12)C5 [INSUETOLIDE A] | inactive
242 (≈ 64.5 µg/mL) | CC1(C)CCC[C@@]2(C)[C@H]1[C@H](O)C=C1COC(=O)[C@@]12O [STROBILACTONE A] | inactive
162 (≈ 68.1 µg/mL) | CC(O)C(O)/C=C/C=C/C(=O)O[C@@H]1C=C2COC(=O)[C@]2(O)[C@@]2(C)CCCC(C)(C)[C@H]12 (stereo not given in full) | –
